In US8541426B2, “Pharmaceutical compositions and methods of treating dry eye disorders” (Pfizer Inc., priority 2007, dated 2013):

Tests used:
dry-induced C57 mice = assay: Induced dry eye mouse model (scopolamine and fans), tear production; format: in vivo; conditions: for tear production versus normal tear production values: after 4 days of treatment, induced dry eye mice
Protocol: An injection was prepared comprising 2.5 mg/ml scopolamine (sigma) in injectable saline (1-1.5 ml per animal). In normal C57 mice (200-250) ul of scopolamine was injected four times every 2.5 hrs in alternating hind quarters. The mice were placed in special cages (with holes in front and back) and placed in a hood. Fans were placed in front of each cage, and turned on for 16 hours over night for five days.
Measurements were taken daily.
As with Examples 4 and 5 above, animals were treated with drug or vehicle at 1 μl, once a day for 2 weeks.

MRL/Ipr (Dry Eye) Mice = system: MRL/Ipr (Dry Eye) Mice
Protocol: To study the level of tear production over time, 10 MRL/Ipr mice and 5 of the age-matched C57 Black/6 control mice at 8 weeks of age were purchased from Jackson Laboratory (Bar Harbor, Me., USA). The mouse strain MRL/Ipr has a mutation which predisposes it to dry eye similar to Sjogren's Syndrome.
Tear production was measured with cotton thread (Quick Zone®) held with forceps and applied to the ocular surface at the lateral canthus for 15 to 30 seconds. Wetting of the thread was measured in millimeters.
C57 mice also received vehicle. Tear volume was measured on days 2, 3, and 6.
Tear measurement was done using phenol red impregnated thread (Quick Zone®) and baseline measurement was performed before each drug application. Drugs or vehicles were applied at 2 μl, two times a day.
Vehicle-treated normal C57black/6 and MRL/Ipr dry eye mice were used as normal control and dry eye control, respectively.
Control animals included normal C57Black/6 mice, and MRL/Ipr mice, treated with PBS vehicle and MRL/Ipr mice treated with Refresh Endura® (vehicle for Restasis) (5-10 mice/group).
As with Example 4 above, vehicle-treated normal C57black/6 and MRL/Ipr dry eye mice (5-10 mice/group) were used as normal control and dry eye control, respectively. […] Treatment for Formulation 1 was carried for two weeks, at 2 μl, twice a day.

[1] = CP-690550 0.01% vs Restasis (cyclosporine 0.05%), twice a day for 30 days, MRL/Ipr mice (FIG. 3)

## C[C@@H]1CCN(C(=O)CC#N)C[C@@H]1N(C)c1ncnc2[nH]ccc12 [CP0690550, 3-{(3R,4R)-4-Methyl-3-[methyl-(7H-pyrrolo[2,3-d]pyrimidin-4-yl)-amino]-piperidin-1-yl}-3-oxo-propionitrile]
dry-induced C57 mice; 0.003% in Formulation 5, once a day
  tear production versus normal tear production values: approximated normal tear production values
dry-induced C57 mice; 0.01% (w/w) in Formulation 3, once a day
  tear production versus normal tear production values: approximated normal tear production values
dry-induced C57 mice; Formulations 3 and 5, 1 μl once a day, at 2 days of treatment, induced dry eye mice (FIGS. 7 and 8)
  increase in tear production: significant increase
MRL/Ipr (Dry Eye) Mice; 0.01% (w/w) in Formulation 1 vehicle, twice a day, within 8 days, MRL/Ipr mice (FIG. 4)
  tear production comparable to normal: within x% of tear production by C57 normal mice: 5 to 10%
MRL/Ipr (Dry Eye) Mice; 0.1% (w/w) twice a day, topical, MRL/Ipr mice, within the first 2 days of application (FIG. 2)
  increase of tear production volume: significantly increase
MRL/Ipr (Dry Eye) Mice; [1]
  response rate as compared to Restasis: much faster response rate
  volume of tear production over Restasis: significant improvement
MRL/Ipr (Dry Eye) Mice; all comparisons (Formulations 1, 3 and 4 vehicle, FIGS. 4-6), 2 days after treatment, MRL/Ipr mice
  improvement in tear production: significant improvement
MRL/Ipr (Dry Eye) Mice; ultimately reached, MRL/Ipr mice, FIGS. 3 and 4
  tear production volume comparable to normal: within x% of tear production by normal C57 mice: 5 to 10%
